These are literature values, as cited in patent US20220015356A1, “AQUEOUS SOLUTIONS OF POORLY SOLUBLE PESTICIDES USING POLYALKYOXYLATED ALCOHOLS” (priority 2018, published 2022).

For the series the following is noted: at 20° C.

As for `COC(=O)N(OC)c1ccccc1COc1ccn(-c2ccc(Cl)cc2)n1` [pyraclostrobin], the water solubility was < 1.9 µg/mL.
